In data set [1] the target is T1, uPAR (Homo sapiens, UniProt Q03405).
T1 construct: human promyeloid cell line U937 as source for cellular native uPAR; endogenous in cells; host or cells: U937 cells stimulated with PMA
As to the kind of experiment: Flow cytometry: inhibition of FITC-pro-uPA binding to uPAR on PMA-stimulated U937 cells. To be noted: for IC50: FIG. 1a, read-out: IC50 (inhibition of uPA/uPAR interaction) (converted); for affinity/activity for uPAR lower than that of ATF: relative to ATF. On the procedure:
The capacity of the synthetic peptides for inhibiting uPA/uPAR interaction was determined using the human promyeloid cell line U937 as source for cellular native uPAR by means of flow cytometry on a FACScan flow cytometer (Becton-Dickinson, Heidelberg, Germany) (Chuchulowski et al., Fibrinolysis 6, Suppl. 4 (1992), 95-102; Magdolen et al., (1996), supra). The U937 cells were stimulated with […] phorbol 12-myristate 13-acetate (PMA) for 48 h. After stimulation with PMA, the U937 cells express considerable amounts of cell surface-associated uPAR.
The stimulated cells were treated with 50 m glycine-HCl, 0.1 NaCl, pH 3.6 at room temperature for 1 min, in order to dissociate endogenous receptor-bound uPA. Subsequently, the acidic buffer was neutralized by 0.5 M HEPES, 100 mM NaCl, pH 7.5. The cells were then immediately washed twice with PBS/0.1% bovine serum albumin (BSA) and centrifuged at 300×g at room temperature for 10 min. The cells were resuspended in PBS/0.1% BSA, adjusted to a concentration of 10^6 cells per ml and incubated simultaneously with 1.6 ng of FITC-conjugated pro-uPA and different amounts of the synthetic peptides at room temperature for 45 min. Prior to analysis, propidium iodide, a fluorescent dye binding specifically double-stranded DNA, was added to each sample, in order to determine the viability of the analyzed U937 cells. Damaged, propidium iodide-labeled cells were excluded from the analysis.

Data set [2] is described as follows: Peptide stability in human serum (HPLC). To be noted: 37° C., 20.5 h. The data set is classed as in vitro ADME. On the procedure: (§1) The stability of uPA-derived peptides in human serum or complete blood was assayed in vitro.
Human sera were prepared by allowing venous blood to coagulate without anti-coagulant in polypropylene tubes at 37° C. for 45 min. The clots adhering to the vessel wall were removed using a plastic stick and removed by centrifugation at 1200×g at room temperature for 12 min. The serum in the supernatant was removed and either used freshly for stability studies or frozen in aliquots at −20° C. for further use.
(§2) For stability studies in human complete blood, coagulation of venous blood was inhibited by heparin sodium (1 000 IU per 10 ml of complete blood), and the blood was used freshly. The peptides to be tested were added to the body fluids in the form of peptide-mixture stock solutions (≧1 μg per peptide in H2O) at a concentration of 5 μg/100 μl of serum or 200 μl of complete blood (per peptide) and incubated at 37° C. for various times. Prior to HPLC analysis, complete blood incubations were centrifuged at 16 000×g at room temperature for 5 min and the plasma in the supernatant was removed.
Sera and plasmas were prepurified via HLB precolumns (Waters GmbH, Oasis HLB extraction cartridge 1 cm^3/30 mg) prior to HPLC analysis. For this purpose, 100 μl of liquid were diluted with PBS to 1 ml and applied to said HLB precolumns equilibrated with 1 ml of 100% methanol and 1 ml of H2O. The columns were washed with 1ml of 5% methanol in H2O and eluted with 1 ml of 100% methanol. The first 200 μl (4 drops) of the eluate were discarded as void volume. The next 500 μl of eluate were diluted with 500 μl of PBS and analyzed by HPLC. […]
The stability of the peptides inhuman serum (FIG. 4a) was studied by adding a mixture of in each case 12.5 μg of the peptides to about 250 μl of serum. 100 μl thereof were diluted with PBS to 1 ml, prepurified on an HLB precolumn and analyzed immediately by HPLC (middle profile). A further 100 μl were analyzed after 20.5 h of incubation at 37° C. […] As a control, in each case 5 μg of the peptides were admixed with 1 ml of PBS and analyzed (top profile). […]

Data set [3] can be described thus: Peptide stability in heparinized human complete blood (HPLC). The data set is classed as in vitro ADME. To be noted: for stability in heparinized human blood: 37° C., 20.5 h, HPLC of plasma; for distribution between plasma and blood cells: heparinized human blood, peak integrals versus PBS control. On the procedure:
as §1, §2
Sera and plasmas were prepurified via HLB precolumns (Waters GmbH, Oasis HLB extraction cartridge 1 cm^3/30 mg) prior to HPLC analysis. For this purpose, 100 μl of liquid were diluted with PBS to 1 ml and applied to said HLB precolumns equilibrated with 1 ml of 100% methanol and 1 ml of H2O. The columns were washed with 1ml of 5% methanol in H2O and eluted with 1 ml of 100% methanol. The first 200 μl (4 drops) of the eluate were discarded as void volume. The next 500 μl of eluate were diluted with 500 μl of PBS and analyzed by HPLC. The remaining 300 μl of the eluate were discarded. HPLC analysis was carried out using a YMC-5 C18 analytical column and a 20-60% gradient of H2O, 0.1% trifluoroacetic acid and acetonitrile, 0.1% trifluoroacetic acid over 30 min and detecting the analytes at 220 nm.
The stability in heparinized human blood (FIG. 4b) was studied by adding 750 μl of freshly prepared heparinized human blood to 37.5 μg of the peptides. Immediately thereafter, 375 μl were removed by centrifugation. 100 μl of the plasma supernatant were analyzed (middle profile). The remaining 375 μl were incubated with gentle agitation at 37° C. for 20.5 h and then analyzed (bottom profile). As a control, 5 μg of the peptides had already been admixed with 1 ml of PBS and analyzed (top profile).

In data set [4] the test system is plasmin. As to the kind of experiment: Sensitivity to the tissue protease plasmin (HPLC). The data set is classed as in vitro ADME. The note with it: 0.05 U plasmin, 37° C., 30 min, pH 7.5. On the procedure: The sensitivity of peptides against the attack of various proteases of the digestive tract was determined in vitro using purified enzymes under suitable buffer conditions. In general, 10 μg of peptide were incubated in a 100 μl volume with 2 μg of protease at 37° C. for 30 min under the buffer conditions for the activity controls as stated by the manufacturer. After incubation and dilution with 300 μl of H2O, the mixtures were analyzed directly, without prepurification via a precolumn, by HPLC using a 20-60% gradient of H2O, 0.1% trifluoroacetic acid and acetonitrile, 0.1% trifluoroacetic acid.
Pepsin (Sigma, Deisenhofen, Germany) was incubated with peptides in 52 mM HCl. Incubations with trypsin (Sigma) were carried out in 63 mM sodium phosphate pH 7.6. Chymotrypsins α, β, γ,δ (ICN) were incubated in 50 mM CaCl2 and 40 mM Tris/HCl pH 7.8. This was followed by incubating with bacteriae proteinase K in unbuffered water. The positive control used was the *peptide cyclo[19,31]-uPA16-32 which corresponds to the original sequence of the uPA omega loop except for the cysteine bridge. The peptide sensitivity against the tissue protease plasmin (Sigma) was assayed in mixtures with 10 or 5 μg of peptides and 0.05 U of plasmin in 100 μl of 200 mM sodium phosphate pH 7.5 at 37° C. and a 30 min incubation period.
FIG. 5 depicts HPLC profiles of peptide variants prior to (top profiles) and after (bottom profiles) incubation with plasmin. Part (A) of the figure depicts the unaltered lead structure cyclo[21,29][D-Cys^21Cys^29]-uPA21-30 with lysine at position 23, (B) the ornithine-substituted variant cyclo[21,29][D-Cys^21Orn^23Cys^29]-uPA21-30, (C) the diaminobutyric acid-substituted variant cyclo[21,29][D-Cys^21Dab^23Cys^29]-uPA21-30, (D) the diaminopropionic acid-substituted variant cyclo[21,29][D-Cys^21Dap^23Cys^29]-uPA21-30, (E) the norleucine-substituted variant cyclo[21,29][D-Cys^21Nle^23Cys^29]-uPA21-30 and (F) the arginine-substituted variant cyclo[21,29][D-Cys^21Arg^23Cys^29]-uPA21-30. The protease plasmin appears in the bottom profiles in each case at approx. 17.5 min.

Positions of bridges follow the written chain, without caps; N, C: chain ends. Non-standard residues stand in square brackets, D forms with d. Residues, ends and D or L forms follow the SMILES beside them. Tic = O=C(O)[C@@H]1Cc2ccccc2CN1; Nle = CCCC[C@H](N)C(=O)O; Orn = NCCC[C@H](N)C(=O)O; Dab = NCC[C@H](N)C(=O)O; Dap = NC[C@H](N)C(=O)O

T1 sequence (Q03405 23-305): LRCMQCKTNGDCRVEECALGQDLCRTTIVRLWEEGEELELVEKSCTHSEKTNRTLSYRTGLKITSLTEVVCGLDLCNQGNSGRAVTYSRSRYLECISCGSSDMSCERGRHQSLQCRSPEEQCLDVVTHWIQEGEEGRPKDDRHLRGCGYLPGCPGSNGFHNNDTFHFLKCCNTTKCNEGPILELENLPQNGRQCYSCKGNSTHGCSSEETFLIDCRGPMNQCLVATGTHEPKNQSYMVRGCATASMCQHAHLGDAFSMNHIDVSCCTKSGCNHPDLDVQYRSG

As to `CC[C@H](C)[C@@H]1NC(=O)[C@H](CC(N)=O)NC(=O)[C@H](CO)NC(=O)[C@H](Cc2ccccc2)NC(=O)[C@H](Cc2ccc(O)cc2)NC(=O)[C@H](CCCCN)NC(=O)[C@H](CC(N)=O)NC(=O)[C@H](N)CSSC[C@@H](C(=O)N[C@@H](Cc2c[nH]c3ccccc23)C(=O)O)NC1=O` [cyclo[21,29][D-Cys^21,Cys^29]uPA21-30] (H-[dC]NKYFSNICW-OH; disulfide 1-9; N-terminus and C-terminus assumed), in data set [1], the IC50 was 78 nM and the “affinity/activity for uPAR lower than that of ATF” value came to 4. Moreover, in data set [2], the “stability in human serum” value is on record as “unaltered”. For the same compound, in data set [3], the “stability in heparinized human blood” value is on record as “stable”; the “distribution between plasma and blood cells” value is reported as “distributed mainly in the plasma”. Also, the stability against plasmin entry in data set [4] is given as “a new unknown peak appeared”.
As to `CC[C@H](C)[C@@H]1NC(=O)[C@H](CC(N)=O)NC(=O)[C@H](CO)NC(=O)[C@H](Cc2ccccc2)NC(=O)[C@H](Cc2ccc(O)cc2)NC(=O)[C@H](CCN)NC(=O)[C@H](CC(N)=O)NC(=O)[C@H](N)CSSC[C@@H](C(=O)N[C@@H](Cc2c[nH]c3ccccc23)C(=O)O)NC1=O` [cyclo[21,29][D-Cys^21Dab^23Cys^29]-uPA21-30] (H-[dC]N[Dab]YFSNICW-OH; disulfide 1-9; N-terminus assumed), in data set [4], the stability against plasmin result is reported as “stable against plasmin”.
Still for that read-out and setting: next, `CC[C@H](C)[C@@H]1NC(=O)[C@H](CC(N)=O)NC(=O)[C@H](CO)NC(=O)[C@H](Cc2ccccc2)NC(=O)[C@H](Cc2ccc(O)cc2)NC(=O)[C@H](CCCN)NC(=O)[C@H](CC(N)=O)NC(=O)[C@H](N)CSSC[C@@H](C(=O)N[C@@H](Cc2c[nH]c3ccccc23)C(=O)O)NC1=O` [cyclo[21,29][D-Cys^21Orn^23Cys^29]-uPA21-30] (H-[dC]N[Orn]YFSNICW-OH; disulfide 1-9; N-terminus assumed): “stable against plasmin”; `CC[C@H](C)[C@@H]1NC(=O)[C@H](CC(N)=O)NC(=O)[C@H](CO)NC(=O)[C@H](Cc2ccccc2)NC(=O)[C@H](Cc2ccc(O)cc2)NC(=O)[C@H](CCCNC(=N)N)NC(=O)[C@H](CC(N)=O)NC(=O)[C@H](N)CSSC[C@@H](C(=O)N[C@@H](Cc2c[nH]c3ccccc23)C(=O)O)NC1=O` [cyclo[21,29][D-Cys^21Arg^23Cys^29]-uPA21-30] (H-[dC]NRYFSNICW-OH; disulfide 1-9; N-terminus assumed): “plasmin-sensitive”.
With `CC[C@H](C)[C@@H]1NC(=O)[C@H](CC(N)=O)NC(=O)[C@H](CO)NC(=O)[C@@H]2Cc3ccccc3CN2C(=O)[C@H](Cc2ccc(O)cc2)NC(=O)[C@H](CCCCN)NC(=O)[C@H](CC(N)=O)NC(=O)[C@H](N)CSSC[C@@H](C(=O)N[C@@H](Cc2c[nH]c3ccccc23)C(=O)O)NC1=O` [cyclo[21,29][D-Cys^21,Tic^25,Cys^29]-uPA21-30] (H-[dC]NKY[Tic]SNICW-OH; disulfide 1-9; N-terminus assumed), the “stability in human serum” value in data set [2] is reported as “unaltered”. Also, in data set [3], the “stability in heparinized human blood” value is “stable”; the “distribution between plasma and blood cells” value is given as “distributed mainly in the plasma”.
In the case of `CC[C@H](C)[C@@H]1NC(=O)[C@H](CC(N)=O)NC(=O)[C@H](CO)NC(=O)[C@H](Cc2ccccc2)NC(=O)[C@H](Cc2ccc(O)cc2)NC(=O)[C@H](CN)NC(=O)[C@H](CC(N)=O)NC(=O)[C@H](N)CSSC[C@@H](C(=O)N[C@@H](Cc2c[nH]c3ccccc23)C(=O)O)NC1=O` [cyclo[21,29][D-Cys^21Dap^23Cys^29]-uPA21-30] (H-[dC]N[Dap]YFSNICW-OH; disulfide 1-9; N-terminus assumed), in data set [4], the stability against plasmin entry is recorded as “two small unidentified peaks appeared”.
Same read-out and setting: to `CCCC[C@@H]1NC(=O)[C@H](CC(N)=O)NC(=O)[C@H](N)CSSC[C@@H](C(=O)N[C@@H](Cc2c[nH]c3ccccc23)C(=O)O)NC(=O)[C@H]([C@@H](C)CC)NC(=O)[C@H](CC(N)=O)NC(=O)[C@H](CO)NC(=O)[C@H](Cc2ccccc2)NC(=O)[C@H](Cc2ccc(O)cc2)NC1=O` [cyclo[21,29][D-Cys^21Nle^23Cys^29]-uPA21-30] (H-[dC]N[Nle]YFSNICW-OH; disulfide 1-9; N-terminus assumed) belongs “stable against plasmin”.
On to `CC[C@H](C)[C@@H]1NC(=O)[C@H](CC(N)=O)NC(=O)[C@H](CO)NC(=O)[C@H](Cc2ccccc2)NC(=O)[C@H](Cc2ccc(O)cc2)NC(=O)[C@H](CCCCN)NC(=O)[C@H](CC(N)=O)NC(=O)[C@@H](N)CSSC[C@@H](C(=O)N[C@@H](Cc2c[nH]c3ccccc23)C(=O)O)NC1=O` [cyclo[21,29][Cys^21,29]-uPA21-30, reference compound] (H-CNKYFSNICW-OH; disulfide 1-9; N-terminus and C-terminus assumed), for which, in data set [1], the IC50 is 2260 nM and the “affinity/activity for uPAR lower than that of ATF” value was “hundred-fold lower”.
In the case of “cyclo[19,31]-uPA16-32 [reference compound]”, the “stability in human serum” value in data set [2] was “could no longer be detected”. In addition, in data set [3], the “stability in heparinized human blood” value was “instability”. Also, the “part of the amount of peptide added degraded” value in data set [3] (complete blood, 10-15 min between addition and prepurification) is on record as above 80%.
